Where two headings read alike, the source gives them in different places.
Experiments:
[1] = molecular target: T1, PTP-1B (Homo sapiens, UniProt P18031); test: pNPP tyrosine phosphatase inhibition assay, PTP-1B; type: biochemical
T1 construct: PTP-1B (purified, 1 mg/mL) as a 1:250 dilution
T1 sequence (P18031 1-321 limits assumed): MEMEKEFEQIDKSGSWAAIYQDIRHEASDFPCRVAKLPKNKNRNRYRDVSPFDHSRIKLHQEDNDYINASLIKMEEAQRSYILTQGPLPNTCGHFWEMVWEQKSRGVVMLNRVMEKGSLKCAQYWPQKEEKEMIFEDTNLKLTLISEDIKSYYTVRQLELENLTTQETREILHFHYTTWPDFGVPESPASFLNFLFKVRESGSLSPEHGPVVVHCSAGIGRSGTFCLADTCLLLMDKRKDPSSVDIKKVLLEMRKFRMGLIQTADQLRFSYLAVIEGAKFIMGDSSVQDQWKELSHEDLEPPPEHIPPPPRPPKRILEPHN
Summary of the method: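 Test compounds were screened at two final levels, 31.3 and 10 µM, against 4 µg/mL purified PTP-1B. The substrate was 10 mM p-nitrophenyl phosphate, with incubation for 10 min at 30°C before a K2CO3 quench. Activity was taken from A405.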

[2] = tested on: pIR (phosphorylated insulin receptor) in FAO cells; test: IR phosphorylation assay in FAO cells (pIR ELISA / Western); type: cell-based, rat; details: 10 nM insulin and 10 μM compound
Excerpt: Antibodies and Chemicals. The antibody against phosphorylated insulin receptor (pIR) and the ELISA kit for detection of pIR were from Biosource (Camarillo, Calif.). Rabbit anti-IR/IGF-IR [pYpY1162/1163] phosphospecific antibody recognizes both the insulin receptor (IR) and the insulin-like growth factor-1 receptor (IGF-1R) phosphorylated at the active site tyrosine residues, 1162 and 1163 (1135 and 1136 for IGF-1R) (pIR/pIGF-1R). The Insulin Receptor [pYpY1162/1163] […] HRP-conjugated secondary antibodies were from Cell Signaling Technology (Beverly, Mass.). The ECL detection system was from Amersham (Buckinghamshire, UK), and human insulin was from Invitrogen (Carlsbad, Calif.).
Tissue Culture. FAO rat hepatoma cells were obtained from ECACC (#89042701) and maintained at 37° C. in a 5% CO2 environment in Dulbecco's modified Eagle's medium with high glucose (DMEM-high glucose) (4500 mg/liter) supplemented with 10% FBS and 50 units/ml penicillin, 100 μg/ml streptomycin and 0.292 mg/ml L-glutamine. For assays, cells were seeded in 24-well plates at a density of 2×10^5 cells/well and maintained until they reached confluency (about 3 days).
IR phosphorylation assays. Cells in 24-well plates were serum starved overnight in DMEM-low glucose (1000 mg/liter) without serum. […] The pIR/pIGF-1R signals were scanned (HP scanjet 3570c) and quantified (Scion Image). […]

[3] = pNPP assay, PTP-1B, read-out: Activity Class (IC50 ranges)

IC50 [1, 3] [nM] | melting point | IC50 ([1]; in vitro activity of the prodrug, range as in Table 1, read-out: in vitro activity) [nM] | Compound | insulin-induced accumulation of pIR, % of 300 nM insulin pIR signal [2]
2500 to 25000 | 125 to 128 °C |  | O=P(O)(O)C(F)(F)c1ccc(CN(Cc2ccc(-c3ccccc3)cc2)Cc2ccc(C(F)(F)P(=O)(O)O)cc2)cc1 [Compound 20, {[4-({Biphenyl-4-ylmethyl-[4-(difluoro-phosphono-methyl)-benzyl]-amino}-methyl)-phenyl]-difluoro-methyl}-phosphonic acid] | 
100 to 249 | 160 to 162 °C |  | O=C(O)c1ccc(CN(Cc2ccc(C(F)(F)P(=O)(O)O)c(Br)c2)S(=O)(=O)c2ccccc2)cc1 [Compound 31, 4-({Benzenesulfonyl-[3-bromo-4-(difluoro-phosphono-methyl)-benzyl]-amino}-methyl)-benzoic acid] | 
100 to 249 | 170 to 172 °C |  | O=P(O)(O)C(F)(F)c1ccc(CN(Cc2ccc(C(F)(F)P(=O)(O)O)cc2)S(=O)(=O)c2ccccc2Cl)cc1 [Compound 5, {[4-({(2-Chloro-benzenesulfonyl)-[4-(difluoro-phosphono-methyl)-benzyl]-amino}-methyl)-phenyl]-difluoro-methyl}-phosphonic acid] | 
2500 to 25000 | 87 to 89 °C |  | O=C(c1ccccc1)N(Cc1ccc(C(F)(F)P(=O)(O)O)cc1)Cc1ccc(C(F)(F)P(=O)(O)O)cc1 [Compound 11, {[4-({Benzoyl-[4-(difluoro-phosphono-methyl)-benzyl]-amino}-methyl)-phenyl]-difluoro-methyl}-phosphonic acid] | 
2500 to 25000 |  | 2500 to 25000 | COc1ccccc1S(=O)(=O)N(Cc1ccc(-c2cccc(C#N)c2)cc1)Cc1ccc(C(F)(F)P(=O)(O)OC(C)OC(=O)OC(C)C)c(Cl)c1 (stereo not shown) [Compound 218, [(2-Chloro-4-{[(3′-cyano-biphenyl-4-ylmethyl)-(2-methoxy-benzenesulfonyl)-amino]-methyl}-phenyl)-difluoro-methyl]-phosphonic acid mono-(1-isopropoxycarbonyloxy-ethyl) ester] | about 80 % of 300 nM insulin pIR signal
250 to 499 | 181 to 183 °C |  | O=P(O)(O)C(F)(F)c1ccc(CN(Cc2ccc(C(F)(F)P(=O)(O)O)cc2)S(=O)(=O)CCc2ccccc2)cc1 [Compound 9, [(4-{[[4-(Difluoro-phosphono-methyl)-benzyl]-(2-phenyl-ethanesulfonyl)-amino]-methyl}-phenyl)-difluoro-methyl]-phosphonic acid] | 
> 25000 | 187 to 189 °C (dec.) |  | COc1ccccc1S(=O)(=O)N(Cc1ccc(NC(=O)C(=O)O)cc1)Cc1ccc(NC(=O)C(=O)O)cc1 [Compound 57, N-[4-({(2-Methoxy-benzenesulfonyl)-[4-(oxalyl-amino)-benzyl]-amino}-methyl)-phenyl]-oxalamic acid] | 
> 25000 | 268 to 270 °C |  | CN(Cc1ccc(C(F)(F)P(=O)(O)O)cc1)Cc1ccc(C(F)(F)P(=O)(O)O)cc1 [Compound 15, {[4-({[4-(Difluoro-phosphono-methyl)-benzyl]-methyl-amino}-methyl)-phenyl]-difluoro-methyl}-phosphonic acid] | 
2500 to 25000 | 106 to 108 °C |  | O=C(OCc1ccccc1)N(Cc1ccc(C(F)(F)P(=O)(O)O)cc1)Cc1ccc(C(F)(F)P(=O)(O)O)cc1 [Compound 17, {[4-({Benzyloxycarbonyl-[4-(difluoro-phosphono-methyl)-benzyl]-amino}-methyl)-phenyl]-difluoro-methyl}-phosphonic acid] | 
> 25000 | 124 to 127 °C |  | O=C(NCc1ccccc1)N(Cc1ccc(C(F)(F)P(=O)(O)O)cc1)Cc1ccc(C(F)(F)P(=O)(O)O)cc1 [Compound 13, [(4-{3-Benzyl-1-[4-(difluoro-phosphono-methyl)-benzyl]-ureidomethyl}-phenyl)-difluoro-methyl]-phosphonic acid] | 
250 to 499 |  |  | COc1ccccc1S(=O)(=O)N(Cc1ccccc1)Cc1ccc(C(F)(F)P(=O)(O)O)c(Cl)c1 [Compound 170, [(4-{[Benzyl-(2-methoxy-benzenesulfonyl)-amino]-methyl}-2-chloro-phenyl)-difluoro-methyl]-phosphonic acid] | 
100 to 249 |  |  | COc1ccccc1S(=O)(=O)N(Cc1ccc(C(F)(F)P(=O)(O)O)c(Cl)c1)Cc1ccccc1-c1cccc(C(N)=O)c1 [Compound 186, [(4-{[(3′-Carbamoyl-biphenyl-2-ylmethyl)-(2-methoxy-benzenesulfonyl)-amino]-methyl}-2-chloro-phenyl)-difluoro-methyl]-phosphonic acid] | 
< 99 |  |  | O=P(O)(O)C(F)(F)c1ccc(CN(Cc2ccc(C(F)(F)P(=O)(O)O)c(Br)c2)S(=O)(=O)c2ccccc2)cc1 [Compound 38, {[4-({Benzenesulfonyl-[4-(difluoro-phosphono-methyl)-benzyl]-amino}-methyl)-2-bromo-phenyl]-difluoro-methyl}-phosphonic acid] | 

Compound | IC50 [1, 3] [nM] | melting point | IC50 ([1]; in vitro activity of the prodrug, range as in Table 1, read-out: in vitro activity) [nM] | insulin-induced accumulation of pIR, % of 300 nM insulin pIR signal [2]
3-{4-[({[4-(difluorophosphonomethyl)-3-chlorophenyl]methyl}[(2-methoxyphenyl)sulfonyl]amino)methyl]phenyl}-5-bromobenzoic acid [Compound 195] | < 99 |  |  | 

From patent US20060135773A1, “Trisubstituted nitrogen modulators of tyrosine phosphatases” (priority 2004, published 2006)
